Assay results from PubChem BioAssay (NCI).
Where “and” joins values, the source holds several entries; their conditions need not be identical. Equal entries are not always repeated.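 Grown in 96-well plates, cells were treated for 48 hours with each compound at five concentrations. Insufficient inhibition: endpoint recorded as highest concentration tested. Here, GI50 denotes the concentration required for 50% inhibition of growth. TGI is the concentration that stops growth completely.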

Columns and labels:
Assay in all cases: NCI-60 cell line screen, 48 h
ACHN renal = tested on: ACHN renal
HOP-18 NSCLC = tested on: HOP-18 NSCLC
HT29 colon = tested on: HT29 colon
MOLT-4 leukemia = tested on: MOLT-4 leukemia
NCI-H226 lung = tested on: NCI-H226 lung
NCI-H23 lung = tested on: NCI-H23 lung
SF-539 CNS = tested on: SF-539 CNS
UACC-257 melanoma = tested on: UACC-257 melanoma
DU-145 prostate = tested on: DU-145 prostate

Row | Structure (SMILES) | TGI (ACHN renal) | TGI (HOP-18 NSCLC) | TGI (HT29 colon) | TGI (MOLT-4 leukemia) | TGI (NCI-H226 lung) | TGI (NCI-H23 lung) | TGI (SF-539 CNS) | TGI (UACC-257 melanoma) | GI50 (ACHN renal) | GI50 (DU-145 prostate) | TGI (DU-145 prostate) | GI50 (HT29 colon) | GI50 (MOLT-4 leukemia) | GI50 (NCI-H226 lung) | GI50 (NCI-H23 lung) | GI50 (SF-539 CNS) | GI50 (UACC-257 melanoma) | GI50 (HOP-18 NSCLC)
1 | COC(=O)C1=Cc2cc3c(cc2[C@H](c2ccc4c(c2)OCO4)C1C(=O)OC)OCO3 (stereo not given in full) | > 100 µM | > 100 µM | > 100 µM | > 100 µM | > 100 µM | > 100 µM | > 100 µM | > 100 µM |  |  |  |  |  |  |  |  |  | 
2 | CCCOC(=O)C1CCC(=O)N1C(=O)C(Cl)Cl (stereo not given) | > 100 µM | > 100 µM | > 100 µM | > 100 µM | > 100 µM | > 100 µM |  | > 100 µM |  |  |  |  |  |  |  |  |  | 
3 | COC(=O)C1=C(O)C(O)=C(C(=O)OC)CC1 | > 100 µM | > 100 µM | > 100 µM | > 100 µM | > 100 µM | > 100 µM | > 100 µM | > 100 µM |  |  |  |  |  |  |  |  |  | 
4 | COC(=O)C(=O)C(C#N)c1cccc2ccccc12 (stereo not given) | > 100 µM | > 100 µM | > 100 µM | > 100 µM | > 100 µM | > 100 µM | > 100 µM | > 100 µM |  |  |  |  |  |  |  |  |  | 
5 | COC1OC(OC)C2C(c3c(C)cc(C)cc3C)=NOC12 (stereo not given) | > 100 µM | > 100 µM | > 100 µM | > 100 µM | > 100 µM | > 100 µM |  | > 100 µM |  |  |  |  |  |  |  |  |  | 
6 | CCCCN(CCCC)C(=Nc1ccccc1)N(CCCC)CCCC | 82 µM | 6.39 µM | > 100 µM | 13.1 µM |  | 5.97 µM | 24.6 µM | 37.5 µM |  |  |  |  |  |  |  |  |  | 
7 | Cc1cc(O)c2c(c1)C[C@@H](O)C1=C2C(=O)c2c(O)ccc(OC3CC(O)C(OC4CC(OC5CCC(OC6CC(O)C(OC7CC(OC8CCC(O)C(C)O8)C(O)C(C)O7)C(C)O6)C(C)O5)C(O)C(C)O4)C(C)O3)c2C1=O (stereo not given in full) |  | 0.188 µM | 0.318 µM and 2.3 µM | 0.216 µM and 0.343 µM | 0.461 µM and 3.07 µM |  |  |  | 1.52 µM and 0.726 µM | 2.03 µM and 1.37 µM | 0.492 µM and 3.45 µM and 2.69 µM | 0.847 µM | 0.0541 µM | 1.48 µM | 0.343 µM and 0.8 µM | 0.391 µM and 1.31 µM | 1.38 µM and 0.844 µM | 
8 | CC(C)NC(=O)OCc1nnn2c1C(OC(=O)NC(C)C)CC2 (stereo not given) |  | > 100 µM | > 100 µM | > 100 µM | > 100 µM | > 100 µM | > 100 µM | > 100 µM |  |  |  |  |  |  |  |  |  | 
9 | CCC12C=CCN3CC[C@]4(C(=C(C(=O)OC)[C@@H]1Nc1ncnc5c1ncn5C1OC(COC(C)=O)C(OC(C)=O)C1OC(C)=O)Nc1ccccc14)C32 (stereo not given in full) | 5.69 µM | 19.5 µM | 4.88 µM | 25.3 µM | 5.22 µM | 4.06 µM | 4.4 µM | 16.8 µM |  |  |  |  |  |  |  |  |  | 
10 | COC1CCC(=C2C(=O)OC(C)(C)OC2=O)N1 (stereo not given) | > 100 µM | > 100 µM | > 100 µM | > 100 µM | > 100 µM | > 100 µM | > 100 µM | > 100 µM |  |  |  |  |  |  |  |  |  | 
11 | COc1ccc(CN(O)C2C(CO)OC(n3cc(I)c(=O)[nH]c3=O)C2O)cc1 (stereo not given) | > 100 µM | > 100 µM | > 100 µM | > 100 µM |  | > 100 µM | > 100 µM | > 100 µM |  |  |  |  |  |  |  |  |  | 
12 | C#Cc1cccc(NC(=O)Nc2ccccc2NC(=O)CCl)c1 | 30.6 µM |  | > 82.5 µM | > 82.5 µM | 34.1 µM | 48.5 µM | 32.4 µM | > 82.5 µM | 14.5 µM | 28.9 µM | > 82.5 µM | 27.6 µM | 25.6 µM | 16 µM | 16.9 µM | 13.8 µM | 26.7 µM | 
13 | CCS[C@H]1NC(=O)C1[C@H](C)O[Si](C)(C)C(C)(C)C (stereo not given in full) | > 100 µM | > 100 µM | > 100 µM |  |  | > 100 µM | > 100 µM | > 100 µM |  |  |  |  |  |  |  |  |  | 
14 | c1ccc([CH2][Sn]([CH2]c2ccccc2)([S]c2cccc3cccnc23)[S]c2cccc3cccnc23)cc1 | 0.985 µM | 0.84 µM | 0.39 µM |  |  | 0.998 µM | 0.662 µM |  | 0.302 µM |  |  | 0.175 µM |  |  | 0.273 µM | 0.26 µM |  | 0.246 µM
15 | N#Cc1c([N+](=O)[O-])cc(C(F)(F)F)cc1[N+](=O)[O-] | 20 µM | 23.9 µM | 9.36 µM | 4.95 µM | 37.3 µM | 19.2 µM | 11 µM | 19.2 µM |  |  |  |  |  |  |  |  |  | 
16 | CC(=O)OC1COC(N2C(=O)C(=O)c3c(C)cc(Cl)nc32)C(OC(C)=O)C1OC(C)=O (stereo not given) | > 100 µM | > 100 µM | > 100 µM | > 100 µM | > 100 µM | > 100 µM | > 100 µM | > 100 µM |  |  |  |  |  |  |  |  |  | 
17 | CCOC(=O)c1cc2c(n1Cc1cccc(OC)c1)-c1oncc1CC2 | > 100 µM |  | 15.8 µM | > 100 µM | > 100 µM | > 100 µM | 7.35 µM | > 100 µM | 2.66 µM | 2.27 µM | > 100 µM | 0.37 µM | 1.16 µM | 7.46 µM | 3.42 µM | 1.16 µM | 39.6 µM | 
18 | C[N+](C)(C)CC(=O)N/N=C(/C=C/c1ccccc1)CC1OC(=O)c2ccccc21 (stereo not given) | > 100 µM | > 100 µM | > 10 µM | > 100 µM | > 100 µM | > 10 µM | > 100 µM | > 100 µM |  |  |  |  |  |  |  |  |  | 
19 | CCCCC1(N=[N+]=[N-])C(=O)c2cccc3c2N(CCC3)C1=O (stereo not given) | > 100 µM |  | > 100 µM | > 100 µM | > 100 µM | > 100 µM | > 100 µM | > 100 µM |  |  | > 100 µM |  |  |  |  |  |  | 
20 | O=C(c1ccccc1)c1nnn(Cc2cccc(Cl)c2)c1C(=O)c1ccccc1 | > 100 µM | > 100 µM | > 100 µM | > 100 µM | > 100 µM | > 100 µM |  | > 100 µM |  |  |  |  |  |  |  |  |  | 
21 | [N-]=[N+]=Nc1ccc(S(=O)(=O)Oc2cc(OS(=O)(=O)c3ccc(N=[N+]=[N-])cc3)cc(OS(=O)(=O)c3ccc(N=[N+]=[N-])cc3)c2)cc1 | > 10 µM | > 100 µM | > 100 µM | > 100 µM | > 10 µM | > 100 µM | > 100 µM | > 100 µM |  |  |  |  |  |  |  |  |  | 
22 | CC(=O)OCC1OC(n2cc(F)c(=O)[nH]c2=O)C(OC(C)=O)C1OC(C)=O (stereo not given) | > 100 µM | > 100 µM | > 100 µM | > 77.7 µM | > 100 µM | > 100 µM | 52.1 µM | > 100 µM |  |  | > 100 µM |  |  |  |  |  |  | 
23 | CCN(CC)CCN(C)CC(C)(C)C(=O)/C=C/c1ccccc1 | 26.5 µM | 30.6 µM | 24.9 µM | 30.5 µM | 32.4 µM | 25.7 µM | 19 µM | 24.4 µM |  |  |  |  |  |  |  |  |  | 
